Holding throughout (type): in vivo
For one assay, the system named is rice. Nature of the assay: Rice pouch assay: growth of primary root and shoot. As for the experimental part: Seeds were placed in germination pouches consisting of germination paper as an insert in a gas-permeable 16×14 cm plastic pouch (CYG Pouch; Mega International, St. Paul, Minn.). In pouch solution evaluation, S-Benzylthiouracil compounds or their salts were dissolved in a small volume of DMSO and added to sterile water with a maximum of 0.5% v/v DMSO at final dilution. The S-Benzylthiouracil solution was subsequently pipetted into the growth pouch, followed by the addition of seeds of the crop being tested. The pouches were arranged in a randomized complete block design in growth racks and placed in 19-liter polycarbonate food storage containers (Rubbermaid Commercial Products, Winchester, Va.). The sealed containers were held in an upright growth cabinet maintained at 25 C with a 12 hour light: 12 hour dark photoperiod. For rice, plants were harvested at 6 d, while in mungbean and corn, the plants were harvested at 4 d post sowing. Measurements were performed on the primary root and shoot of each seedling. The growth of the primary root of rice was examined in the pouch assay system. The results of the testing, presented as percent change in root length across all S-Benzylthiouracil compounds, are shown below.

In another assay the test system is tomato. Nature of the assay: Tomato petri plate assay. The following applies: Solanum lycopersicum, 144 h; 10 ppm; after 6 days of continuous exposure; read-out: Percent Increase (percent change in primary tomato root length). As for the experimental part: For tomato, the plants were grown in disposable (150 mm) sterile plastic petri plates (Falcon, BD Biosciences, Franklin Lakes, N.J.). In the tomato assay, a single sheet of Whatman #1 filter paper was placed at the bottom of the plate, 15 tomato seeds were added, and 10 mL of treatment solution was added. At the end of 6 d, the 10 largest seedlings were selected for measurement from each plate. In each study, a minimum of 3 replicate plates were used. In tomato, several S-Benzylthiouracil compounds were tested to determine the effects on root growth.

In another assay the test system is mungbean. Nature of the assay: Mungbean pouch assay: growth of primary root and shoot. As to conditions: 96 h; 10 ppm (10 mg/L); uracil moiety substitutions; read-out: Percent Change in Primary Root Length of Mungbean. As to the method: Seeds were placed in germination pouches consisting of germination paper as an insert in a gas-permeable 16×14 cm plastic pouch (CYG Pouch; Mega International, St. Paul, Minn.). In pouch solution evaluation, S-Benzylthiouracil compounds or their salts were dissolved in a small volume of DMSO and added to sterile water with a maximum of 0.5% v/v DMSO at final dilution. The S-Benzylthiouracil solution was subsequently pipetted into the growth pouch, followed by the addition of seeds of the crop being tested. The pouches were arranged in a randomized complete block design in growth racks and placed in 19-liter polycarbonate food storage containers (Rubbermaid Commercial Products, Winchester, Va.). The sealed containers were held in an upright growth cabinet maintained at 25 C with a 12 hour light: 12 hour dark photoperiod. For rice, plants were harvested at 6 d, while in mungbean and corn, the plants were harvested at 4 d post sowing. Measurements were performed on the primary root and shoot of each seedling. The growth of the primary root of mungbean was examined in the pouch assay system. The results of the testing, presented as percent change in root length across all the free S-Benzylthiouracil compounds is shown below. The following S-Benzylthiouracil compounds have benzyl substitutions as defined in Table 11 below.

Consider `Oc1cc(O)nc(SCc2cccc(F)c2)n1` [Compound 18], for which the “Percent Change (rice primary root growth)” value in the assay with rice (10 ppm, compounds and water-soluble salts, 6 days after sowing) was determined as 4.0%. For the same compound, the change in vivo at 10 ppm with rice (Oryza sativa, 144 h, 10 ppm (10 mg/L), uracil moiety substitutions, vs control, read-out: Percent Change in Primary Root Length in Rice) was 4%; with tomato, 15.4%; with mungbean, 11.3%.

Values taken from patent US9510593B2, “S-benzylthiouracil compounds and methods of enhancing plant root growth” (Valent BioSciences Corporation, priority 2014, dated 2016).
